Experimental data: patent publication US20250243180A1, “TARGETED PROTEIN DEGRADATION” (Monte Rosa Therapeutics AG, priority 2023, published 2025)
Like-named read-outs stand apart in the source and are kept apart here.

Experiments:
NEK7 = NEK7 (Homo sapiens (Human), UniProt Q8TDX7+Q96SW2); assay: NEK7 NanoBiT degradation assay in Cal51 NEK7 NanoBiT cell line; type: cell-based; conditions: Cal51 NEK7 NanoBiT cells, 24 hours; for Dmax: CAL-51
Summary of the method: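 Cal51 cells with CRISPR knock-in HiBiT-tagged endogenous NEK7 plus stable LgBiT, in live-cell Endurazine medium, seeded 16 h before dosing. Compounds at final 1 μM to 0.05 nM for 24 h at 37 °C, then luminescence read. Response normalized to plate controls and fitted with a 4-parameter logistic giving EC50.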

CRBN-DDB1 = CRBN-DDB1 (Homo sapiens (Human), UniProt Q96SW2); assay: Compound binding to CRBN by HTRF assay
Summary of the method: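 HTRF displacement of Cy5-thalidomide probe (100 nM) from His-tagged CRBN-DDB1 (2.5 nM) with anti-His terbium cryptate, in HEPES/NaCl/TCEP/EDTA/Tween20 buffer; 11-point 1:3 dilution series, 30 min at ambient temperature. Signal (665/620 nm) normalized to lenalidomide and DMSO controls; EC50 fitted, Ki by Cheng-Prusoff from geometric mean EC50.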

[1] = NEK7 degradation, read-out: NanoBiT Dmax
[2] = NEK7 degradation, read-out: NanoBiT DC50

CRBN-DDB1, sequence (Q96SW2 whole entry): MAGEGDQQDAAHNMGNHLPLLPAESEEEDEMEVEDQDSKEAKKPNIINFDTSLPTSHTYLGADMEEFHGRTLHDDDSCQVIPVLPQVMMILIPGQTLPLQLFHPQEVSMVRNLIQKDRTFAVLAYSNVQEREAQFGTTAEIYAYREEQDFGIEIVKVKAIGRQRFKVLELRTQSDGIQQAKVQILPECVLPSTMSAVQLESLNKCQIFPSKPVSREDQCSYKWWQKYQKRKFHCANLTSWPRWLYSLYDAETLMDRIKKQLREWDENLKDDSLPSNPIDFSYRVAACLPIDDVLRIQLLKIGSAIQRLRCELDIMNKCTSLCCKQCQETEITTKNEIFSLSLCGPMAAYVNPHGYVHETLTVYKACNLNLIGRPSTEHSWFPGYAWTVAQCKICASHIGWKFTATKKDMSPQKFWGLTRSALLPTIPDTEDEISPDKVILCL
CRBN-DDB1, sequence (Q16531 whole entry partner): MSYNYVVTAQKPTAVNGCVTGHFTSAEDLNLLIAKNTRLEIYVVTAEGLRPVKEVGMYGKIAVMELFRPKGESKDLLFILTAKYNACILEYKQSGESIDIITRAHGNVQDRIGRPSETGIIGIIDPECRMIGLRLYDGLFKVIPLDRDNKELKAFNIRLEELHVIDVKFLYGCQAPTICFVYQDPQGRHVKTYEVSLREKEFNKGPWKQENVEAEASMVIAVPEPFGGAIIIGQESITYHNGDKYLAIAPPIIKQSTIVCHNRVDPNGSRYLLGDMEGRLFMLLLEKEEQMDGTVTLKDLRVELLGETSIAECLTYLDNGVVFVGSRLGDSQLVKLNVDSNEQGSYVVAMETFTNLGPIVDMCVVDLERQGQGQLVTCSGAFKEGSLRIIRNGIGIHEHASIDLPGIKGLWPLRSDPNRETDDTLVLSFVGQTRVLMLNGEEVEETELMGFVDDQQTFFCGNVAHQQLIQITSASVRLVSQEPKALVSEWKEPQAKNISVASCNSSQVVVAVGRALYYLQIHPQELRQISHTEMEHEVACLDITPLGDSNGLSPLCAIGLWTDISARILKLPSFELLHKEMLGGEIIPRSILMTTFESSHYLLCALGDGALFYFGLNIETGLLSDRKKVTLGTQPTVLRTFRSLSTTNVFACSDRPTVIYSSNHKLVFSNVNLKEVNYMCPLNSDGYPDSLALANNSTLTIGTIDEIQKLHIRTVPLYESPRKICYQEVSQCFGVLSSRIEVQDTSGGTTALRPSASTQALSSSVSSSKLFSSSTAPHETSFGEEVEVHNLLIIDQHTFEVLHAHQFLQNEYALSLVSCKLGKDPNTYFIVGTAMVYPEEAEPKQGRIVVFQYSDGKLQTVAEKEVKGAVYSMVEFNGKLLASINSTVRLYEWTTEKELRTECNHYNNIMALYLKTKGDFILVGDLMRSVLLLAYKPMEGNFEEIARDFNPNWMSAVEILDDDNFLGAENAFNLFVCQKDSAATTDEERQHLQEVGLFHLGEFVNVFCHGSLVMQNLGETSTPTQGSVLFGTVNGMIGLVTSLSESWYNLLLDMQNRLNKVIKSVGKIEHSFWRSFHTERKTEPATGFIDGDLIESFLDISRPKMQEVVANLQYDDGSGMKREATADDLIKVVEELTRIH
NEK7, sequence (Q8TDX7 whole entry): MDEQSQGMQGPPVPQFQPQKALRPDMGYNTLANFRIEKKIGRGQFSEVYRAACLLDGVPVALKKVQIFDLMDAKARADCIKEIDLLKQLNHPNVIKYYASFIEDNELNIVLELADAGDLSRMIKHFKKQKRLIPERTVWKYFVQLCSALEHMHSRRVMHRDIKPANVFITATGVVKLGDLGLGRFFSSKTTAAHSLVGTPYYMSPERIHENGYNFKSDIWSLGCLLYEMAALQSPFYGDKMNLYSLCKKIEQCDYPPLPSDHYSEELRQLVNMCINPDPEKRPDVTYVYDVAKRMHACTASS
NEK7, sequence (Q96SW2 whole entry): as the sequence (Q96SW2 whole entry) above
NEK7, sequence (Q16531 2-1140 partner): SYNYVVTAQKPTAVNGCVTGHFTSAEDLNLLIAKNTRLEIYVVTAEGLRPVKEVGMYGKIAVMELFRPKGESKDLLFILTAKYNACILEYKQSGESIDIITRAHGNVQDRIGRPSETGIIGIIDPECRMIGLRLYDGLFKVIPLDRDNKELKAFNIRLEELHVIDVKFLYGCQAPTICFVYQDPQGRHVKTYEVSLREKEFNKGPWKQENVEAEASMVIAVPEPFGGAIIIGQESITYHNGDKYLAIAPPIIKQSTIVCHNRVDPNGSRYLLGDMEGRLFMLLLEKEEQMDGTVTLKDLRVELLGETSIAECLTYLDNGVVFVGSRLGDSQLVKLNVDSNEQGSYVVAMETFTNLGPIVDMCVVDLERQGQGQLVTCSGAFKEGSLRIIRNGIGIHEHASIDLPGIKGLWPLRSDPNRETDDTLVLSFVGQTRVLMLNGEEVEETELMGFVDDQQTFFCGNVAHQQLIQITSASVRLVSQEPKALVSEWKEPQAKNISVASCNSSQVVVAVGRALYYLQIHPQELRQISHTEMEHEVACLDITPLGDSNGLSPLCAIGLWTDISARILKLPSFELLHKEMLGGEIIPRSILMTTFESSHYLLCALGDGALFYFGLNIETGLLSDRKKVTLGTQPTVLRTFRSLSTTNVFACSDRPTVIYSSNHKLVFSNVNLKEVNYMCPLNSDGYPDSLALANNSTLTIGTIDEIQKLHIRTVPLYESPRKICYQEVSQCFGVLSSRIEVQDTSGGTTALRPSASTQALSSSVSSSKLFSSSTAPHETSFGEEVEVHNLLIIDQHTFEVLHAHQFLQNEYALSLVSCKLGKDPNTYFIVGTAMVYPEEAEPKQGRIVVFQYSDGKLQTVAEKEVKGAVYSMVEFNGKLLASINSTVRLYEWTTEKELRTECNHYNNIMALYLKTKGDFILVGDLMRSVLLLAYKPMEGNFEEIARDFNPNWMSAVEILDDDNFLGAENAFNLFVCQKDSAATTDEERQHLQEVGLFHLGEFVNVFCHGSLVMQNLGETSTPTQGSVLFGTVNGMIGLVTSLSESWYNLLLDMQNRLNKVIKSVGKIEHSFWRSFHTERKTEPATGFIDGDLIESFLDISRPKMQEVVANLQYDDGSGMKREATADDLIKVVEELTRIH

Row | Compound | Dmax (NEK7; read-out: NEK7 NanoBiT Dmax) | Dmax (NEK7; [1]) | DC50 (NEK7; read-out: NEK7 NanoBiT DC50) | DC50 (NEK7; [2]) | EC50 (CRBN-DDB1) | EC50 (CRBN-DDB1; HTRF class, Cereblon binding)
1 | CC(C)(C(=O)NCc1cc(Cl)c(C2CCC(=O)NC2=O)c(Cl)c1)c1ccnc(C(F)F)n1 (stereo not drawn) [Compound 156, N-(3,5-dichloro-4-(2,6-dioxopiperidin-3-yl)benzyl)-2-(2-(difluoromethyl)pyrimidin-4-yl)-2-methylpropanamide] | 54% | 50 to 75% | 435 nM | 100 to 1000 nM | 330 nM | 100 to 1000 nM
2 | CC(C)(C(=O)NCc1cc(Cl)c(C2CCC(=O)NC2=O)c(Cl)c1)c1cc(C#N)ccn1 (stereo not drawn) [Compound 157] | 60% | 50 to 75% | 178 nM | 100 to 1000 nM | 190 nM | 100 to 1000 nM
3 | Cc1cncnc1C(C)(C)C(=O)NCc1cc(Cl)c(C2CCC(=O)NC2=O)c(Cl)c1 (stereo not drawn) [Compound 158] | 91% | > 75% | 8 nM | ≤ 100 nM | 320 nM | 100 to 1000 nM
4 | CC(C)(C(=O)NCc1cc(Cl)c(C2CCC(=O)NC2=O)c(Cl)c1)c1cc(C(F)F)ncn1 (stereo not drawn) [Compound 159] | 79% | > 75% | 28 nM | ≤ 100 nM | 280 nM | 100 to 1000 nM
5 | CC(C)(C(=O)NCc1cc(Cl)c(C2CCC(=O)NC2=O)c(Cl)c1)c1cnccn1 (stereo not drawn) [Compound 161] | 69% | 50 to 75% | 54 nM | ≤ 100 nM | 230 nM | 100 to 1000 nM
6 | CC(C)(C(=O)NCc1cc(Cl)c(C2CCC(=O)NC2=O)c(Cl)c1)c1ncc(N2CCC2)cn1 (stereo not drawn) [Compound 165] | 69% | 50 to 75% | 47 nM | ≤ 100 nM | 170 nM | 100 to 1000 nM
7 | CC(C)(C(=O)NCc1cc(Cl)c(C2CCC(=O)NC2=O)c(Cl)c1)N1CCc2ccccc21 (stereo not drawn) [Compound 166, N-(3,5-dichloro-4-(2,6-dioxopiperidin-3-yl)benzyl)-2-(indolin-1-yl)-2-methylpropanamide] | 56% | 50 to 75% | 203 nM | 100 to 1000 nM | 90 nM | ≤ 100 nM
8 | O=C1CCC(c2c(Cl)cc(CNC(=O)C3(c4ncccn4)CCC3)cc2Cl)C(=O)N1 (stereo not drawn) [Compound 169, N-(3,5-dichloro-4-(2,6-dioxopiperidin-3-yl)benzyl)-1-(pyrimidin-2-yl)cyclobutane-1-carboxamide] | 75% | 50 to 75% | 42 nM | ≤ 100 nM | 180 nM | 100 to 1000 nM
9 | CC(C)(C(=O)NCc1cc(Cl)c(C2CCC(=O)NC2=O)c(Cl)c1)N1Cc2ccccc2C1 (stereo not drawn) [Compound 170, N-(3,5-dichloro-4-(2,6-dioxopiperidin-3-yl)benzyl)-2-(isoindolin-2-yl)-2-methylpropanamide] | 73% | 50 to 75% | 55 nM | ≤ 100 nM | 180 nM | 100 to 1000 nM
10 | CC(C)(C(=O)NCc1cc(Cl)c(C2CCC(=O)NC2=O)c(Cl)c1)c1cccc2ocnc12 (stereo not drawn) [Compound 171] | 90% | > 75% | 7 nM | ≤ 100 nM | 120 nM | 100 to 1000 nM
11 | Cn1c(F)cc(C(C)(C)C(=O)NCc2cc(Cl)c(C3CCC(=O)NC3=O)c(Cl)c2)cc1=O (stereo not drawn) [Compound 172] | 97% | > 75% | 2 nM | ≤ 100 nM | 190 nM | 100 to 1000 nM
12 | CC(C)(C(=O)NCc1cc(Cl)c(C2CCC(=O)NC2=O)c(Cl)c1)c1nccc(C(F)(F)F)n1 (stereo not drawn) [Compound 174] | 77% | > 75% | 30 nM | ≤ 100 nM | 180 nM | 100 to 1000 nM
13 | CC(C)(C(=O)NCc1cc(Cl)c(C2CCC(=O)NC2=O)c(Cl)c1)c1ncc(C(F)(F)F)cn1 (stereo not drawn) [Compound 175] | 94% | > 75% | 6 nM | ≤ 100 nM | 280 nM | 100 to 1000 nM
14 | Cn1ccc(C2(C(=O)NCc3cc(Cl)c(C4CCC(=O)NC4=O)c(Cl)c3)CCC2)cc1=O (stereo not drawn) [Compound 177] | 85% | > 75% | 53 nM | ≤ 100 nM | 550 nM | 100 to 1000 nM
15 | CC(C)(C(=O)NCc1cc(Cl)c(C2CCC(=O)NC2=O)c(Cl)c1)c1nccc(C(F)F)n1 (stereo not drawn) [Compound 182] | 72% | 50 to 75% | 54 nM | ≤ 100 nM | 200 nM | 100 to 1000 nM
16 | COCc1cnc(C(C)(C)C(=O)NCc2cc(Cl)c(C3CCC(=O)NC3=O)c(Cl)c2)nc1 (stereo not drawn) [Compound 183] | 71% | 50 to 75% | 56 nM | ≤ 100 nM | 370 nM | 100 to 1000 nM
17 | CC(C)(C(=O)NCc1cc(Cl)c(C2CCC(=O)NC2=O)c(Cl)c1)c1ccc2ncoc2n1 (stereo not drawn) [Compound 184] | 95% | > 75% | 3 nM | ≤ 100 nM | 180 nM | 100 to 1000 nM
18 | CC(C)(C(=O)NCc1cc(Cl)c(C2CCC(=O)NC2=O)c(Cl)c1)c1ncc(CC(F)F)cn1 (stereo not drawn) [Compound 186] | 65% | 50 to 75% | 90 nM | ≤ 100 nM | 90 nM | ≤ 100 nM
19 | CC(F)(F)c1cnc(C(C)(C)C(=O)NCc2cc(Cl)c(C3CCC(=O)NC3=O)c(Cl)c2)nc1 (stereo not drawn) [Compound 187] | 93% | > 75% | 4 nM | ≤ 100 nM | 100 nM | 100 to 1000 nM
20 | CC(C)(C(=O)NCc1cc(Cl)c(C2CCC(=O)NC2=O)c(Cl)c1)c1ncc(OC(F)F)cn1 (stereo not drawn) [Compound 188] | 93% | > 75% | 4 nM | ≤ 100 nM | 80 nM | ≤ 100 nM
21 | COc1cnc(C(C)(C)C(=O)NCc2cc(Cl)c(C3CCC(=O)NC3=O)c(Cl)c2)nc1 (stereo not drawn) [Compound 189] | 94% | > 75% | 4 nM | ≤ 100 nM | 70 nM | ≤ 100 nM
22 | CC(C)(C(=O)NCc1cc(Cl)c(C2CCC(=O)NC2=O)c(Cl)c1)c1cc2cccnc2cn1 (stereo not drawn) [Compound 190] | 90% | > 75% | 6 nM | ≤ 100 nM | 90 nM | ≤ 100 nM
23 | CC(C)(C(=O)NCc1cc(Cl)c(C2CCC(=O)NC2=O)c(Cl)c1)c1ccc(C(F)(F)F)nn1 (stereo not drawn) [Compound 191] | 85% | > 75% | 13 nM | ≤ 100 nM | 170 nM | 100 to 1000 nM

Results, then the compound that gave them:

Row | Dmax (NEK7; read-out: NEK7 NanoBiT Dmax) | Dmax (NEK7; [1]) | DC50 (NEK7; read-out: NEK7 NanoBiT DC50) | DC50 (NEK7; [2]) | EC50 (CRBN-DDB1) | EC50 (CRBN-DDB1; HTRF class, Cereblon binding) | Compound
24 | 76% | > 75% | 34 nM | ≤ 100 nM | 200 nM | 100 to 1000 nM | Cc1ccnc(C(C)(C)C(=O)NCc2cc(Cl)c(C3CCC(=O)NC3=O)c(Cl)c2)n1 (stereo not drawn) [Compound 160]
25 | 80% | > 75% | 18 nM | ≤ 100 nM | 250 nM | 100 to 1000 nM | Cc1cnc(C(C)(C)C(=O)NCc2cc(Cl)c(C3CCC(=O)NC3=O)c(Cl)c2)o1 (stereo not drawn) [Compound 163]
26 | 68% | 50 to 75% | 66 nM | ≤ 100 nM | 240 nM | 100 to 1000 nM | Cc1noc(C(C)(C)C(=O)NCc2cc(Cl)c(C3CCC(=O)NC3=O)c(Cl)c2)n1 (stereo not drawn) [Compound 164]
27 | 96% | > 75% | 1 nM | ≤ 100 nM | 90 nM | ≤ 100 nM | CC(C)(C(=O)NCc1cc(Cl)c(C2CCC(=O)NC2=O)c(Cl)c1)c1nc2ccccc2o1 (stereo not drawn) [Compound 167]
28 | 57% | 50 to 75% | 137 nM | 100 to 1000 nM | 150 nM | 100 to 1000 nM | CC(C)(C(=O)NCc1cc(Cl)c(C2CCC(=O)NC2=O)c(Cl)c1)c1nccc(C2CC2)n1 (stereo not drawn) [Compound 168]
29 | 85% | > 75% | 19 nM | ≤ 100 nM | 230 nM | 100 to 1000 nM | Cc1cc(C(C)(C)C(=O)NCc2cc(Cl)c(C3CCC(=O)NC3=O)c(Cl)c2)ncn1 (stereo not drawn) [Compound 173]
30 | 60% | 50 to 75% | 116 nM | 100 to 1000 nM | 50 nM | ≤ 100 nM | Cc1cncc(C(C)(C)C(=O)NCc2cc(Cl)c(C3CCC(=O)NC3=O)c(Cl)c2)n1 (stereo not drawn) [Compound 176]
31 | 66% | 50 to 75% | 95 nM | ≤ 100 nM | 290 nM | 100 to 1000 nM | CC(C)(C(=O)NCc1cc(Cl)c(C2CCC(=O)NC2=O)c(Cl)c1)c1ncc(C2COC2)cn1 (stereo not drawn) [Compound 178]
32 | 83% | > 75% | 15 nM | ≤ 100 nM | 220 nM | 100 to 1000 nM | CC(C)(C(=O)NCc1cc(Cl)c(C2CCC(=O)NC2=O)c(Cl)c1)c1cc(C2CC2)on1 (stereo not drawn) [Compound 185]
33 | 87% | > 75% | 10 nM | ≤ 100 nM | 80 nM | ≤ 100 nM | CC(C)(C(=O)NCc1cc(Cl)c(C2CCC(=O)NC2=O)c(Cl)c1)c1nc(C2CC2)co1 (stereo not drawn) [Compound 193]
